This experiment concerns T1, sigma-1 receptor (S1R).
T1 construct: gene SIGMAR1; S1R-GFP expressed in CHO cells; with BiP
Briefly: S1R/BiP dissociation assay in S1R-GFP CHO cells (GFP-Trap, BiP ELISA). The experiment is classed as cell-based.

Structures can show the parent of a compound that is named as a salt.

`O=C(OCCN1CCOCC1)C1(c2ccccc2)CCCCC1` [PRE-084, 2-(4-Morpholinethyl)-1-phenylcyclohexanecarboxylate hydrochloride] yielded an IC50 of […].
On to `C[C@]12CC[C@H](O)CC1=CC[C@@H]1[C@@H]2CC[C@]2(C)C(=O)CC[C@@H]12` [DHEA], for which the IC50 is 1.17 µM.
